± gives the expanded uncertainty stated by the source.
Details: Maximal bubble pressure

Compound | surface tension liquid-gas (353.15 K) [mN/m] | surface tension liquid-gas (373.15 K) [mN/m] | surface tension liquid-gas (393.15 K) [mN/m] | surface tension liquid-gas (413.15 K) [mN/m] | surface tension liquid-gas (433.15 K) [mN/m] | surface tension liquid-gas (453.15 K) [mN/m] | surface tension liquid-gas (473.15 K) [mN/m] | surface tension liquid-gas (303.15 K) [mN/m] | surface tension liquid-gas (313.15 K) [mN/m] | surface tension liquid-gas (323.15 K) [mN/m] | surface tension liquid-gas (333.15 K) [mN/m] | surface tension liquid-gas (343.15 K) [mN/m]
O=C(OCc1ccccc1)c1ccccc1 [benzyl benzoate] | 39.6 ± 1.6 | 37.53 ± 1.5 | 35.33 ± 1.4 | 33.3 ± 1.4 | 31.1 ± 1.3 | 28.95 ± 1.2 | 26.8 ± 1.1 | – | – | – | – | –
CO [methanol] | – | – | – | – | – | – | – | 21.75 ± 0.89 | 20.9 ± 0.86 | 20.04 ± 0.82 | 19.18 ± 0.79 | 18.32 ± 0.75
